Assay results taken from US20070156046A1, “Method of enriching hyperpolarized atom nuclei and an apparatus for implementing the method” (priority 2004, published 2007).

What was measured:
[1] = ^129Xe densities in the solvent in the two-stage enrichment apparatus; type: physicochemical; details: solvent toluol/ethanol
Protocol: A gas mixture 1 with hyperpolarized atomic nuclei flows from a polarizer (not shown) into a first chamber 2 containing a cooled solvent. Chamber 2 has means for cooling the solvent. The solvent containing the gas mixture is thereby cooled to-a temperature T1, of, e.g. 180° K.
The gas components are enriched in chamber 2 according to their solubility in the solvent, and thus separated from one another. The unnecessary components of the mixture are released through valve 3. The solvent enriched with the hyperpolarized atomic nuclei is guided through a connection line out of chamber 2 into a further chamber 5. Chamber 5 comprises means for degassing, such as an apparatus for producing ultrasound and/or heating.
Chamber 5 thus represents a degassing chamber 5 for the hyperpolarized atomic nuclei from the solvent. In chamber 5, a gas pressure of the originally dissolved gas arises due to the degassing of the hyperpolarized atomic nuclei via the solvent. The gas pressure is determined by the partial pressure of the hyperpolarized atomic nuclei (gas component) in solvent chamber 2, and the ratio of the solubilities of this gas component in the solvent at temperatures T1 in chamber 2 and T2 in chamber 5.
Following degassing in chamber 5, the solution and degassing process may be repeated, as represented in FIG. 2 by continuous lines. For this, starting from chamber 5 at the end of the first enrichment stage, the gas with the hyperpolarized atomic nuclei is guided into chamber 6, where it is cooled to the temperature T1. Following enrichment in the solvent, the gas is conducted into chamber 8 with a temperature of T2 for degassing. Chamber 8, again, has a sufficient volume.
The following ^129Xe densities in the solvent (toluol/ethanol) may be set at different temperatures: […]

[2] = solubility (Ostwald coefficient) of ^129Xe in toluol and ethanol depending on the temperature of the solvent; type: physicochemical; details: for increase of the density compared to the gas phase: 180° K; for density of ^129Xe compared with the gas phase: about 240° K
Protocol: Solubility is defined as the density of the hyperpolarized gas in the solvent relative to the density of the hyperpolarized gas in the gas chamber situated above a given temperature and pressure. The solubility is also referred to as the Ostwald coefficient.
An even higher solubility of ^129Xe in the solvent is obtained by cooling to temperatures of 180° K, thereby obtaining a 100-fold increase of the density in both toluol and ethanol compared to the gas phase. Further cooling by just a few degrees Kelvin already results in an increase of the Ostwald coefficient to a value of 200 (FIG. 2).

In the case of [Xe] [^129Xe, xenon], the “pXe, Sol, Stage 1 (Chamber 2)” value ([1]; T = 180°K) is reported as “pXe, Sol −7.0 bar”, the “pXe, Sol, Stage 2 (Chamber 6)” value ([1]; T = 180°K) is reported as “˜20 bar” and the “pXe, Sol, Stage 1 (Chamber 2)” value ([1]; T = 200°K) is reported as “pXe, Sol −2.1 bar”. For the same molecule, the “pXe, Sol, Stage 2 (Chamber 6)” value ([1]; T = 200°K) was “˜10 bar”, the “pXe, Sol, Stage 1 (Chamber 2)” value ([1]; T = 240°K) was “pXe, Sol −0.7 bar” and the “pXe, Sol, Stage 2 (Chamber 6)” value ([1]; T = 240°K) was “˜3.5 bar”. The “increase of the density compared to the gas phase” value ([2]; in ethanol) was 100 fold, the “density of ^129Xe compared with the gas phase” value ([2]; in ethanol) was “ten times higher” and the “increase of the density compared to the gas phase” value ([2]; in toluol) was 100 fold. For the same molecule, the “density of ^129Xe compared with the gas phase” value ([2]; in toluol) was “ten times higher”, the Ostwald coefficient ([2]; solvent ethanol, standard conditions (293° K, 1 bar)) was “about 2.5” and the Ostwald coefficient ([2]; solvent toluol, standard conditions (293° K, 1 bar)) was “about 5”. The “solubility or Ostwald coefficient compared to at room temperature” value ([2]; temperature of 273° K, toluol and ethanol (FIG. 1)) was “clear increase” and the Ostwald coefficient ([2]; toluol and ethanol, further cooling by a few degrees Kelvin below 180° K) was 200.
